Results as given in ChEMBL document CHEMBL1909046, “DrugMatrix in vitro pharmacology data”.
*1 amine or outer side, *2 acyl side, *3 side chain or, on linkers, in order; H or OH if unused. Where a SMILES comes first, the peptide text is derived from it. Bridges are numbered along the chain shown (N, C = ends). Roman numbers before positions name the chains, in order. [ ]: non-standard residue; d: D form. Actinocin(1to9) = Cc1c2oc3c(C)ccc(C(=O)[*:2])c3nc-2c(C(=O)[*:1])c(N)c1=O; NMeV = CN[C@H](C(=O)O)C(C)C; Sar = CNCC(=O)O

Columns and labels:
[1] = biological target: T1, Amine oxidase [flavin-containing] A (Homo sapiens, UniProt P21397); test: DRUGMATRIX: Monoamine Oxidase MAO-A enzyme inhibition (substrate: Kynuramine); set-up: species or system BTI-TN-5B1-4; settings: bti-tn-5b1-4; Not Active = under 50% inhibition at 10 µM
T1 sequence (P21397 whole entry): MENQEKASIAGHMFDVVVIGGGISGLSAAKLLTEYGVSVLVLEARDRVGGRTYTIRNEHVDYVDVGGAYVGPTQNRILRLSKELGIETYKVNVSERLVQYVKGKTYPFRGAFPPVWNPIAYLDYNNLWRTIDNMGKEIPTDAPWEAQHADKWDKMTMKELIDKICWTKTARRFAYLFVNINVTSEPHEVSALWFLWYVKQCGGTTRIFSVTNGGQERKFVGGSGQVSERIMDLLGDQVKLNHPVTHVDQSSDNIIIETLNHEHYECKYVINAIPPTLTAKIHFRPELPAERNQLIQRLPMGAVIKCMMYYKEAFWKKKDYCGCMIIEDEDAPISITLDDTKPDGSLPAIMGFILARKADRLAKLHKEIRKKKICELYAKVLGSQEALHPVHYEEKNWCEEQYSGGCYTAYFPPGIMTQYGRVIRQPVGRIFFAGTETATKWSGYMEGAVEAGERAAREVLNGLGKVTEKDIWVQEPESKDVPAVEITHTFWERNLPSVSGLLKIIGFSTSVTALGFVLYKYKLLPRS

[2] = biological target: T2, 5-hydroxytryptamine receptor 1A (Rattus norvegicus, UniProt P19327); format: cell membranes, CHO-K1, Membrane; settings: for Ki: read-out: Ki; for all read-outs here: in other assays of this panel Not Active means under 50% inhibition at 10 µM
T2 sequence (P19327 whole entry): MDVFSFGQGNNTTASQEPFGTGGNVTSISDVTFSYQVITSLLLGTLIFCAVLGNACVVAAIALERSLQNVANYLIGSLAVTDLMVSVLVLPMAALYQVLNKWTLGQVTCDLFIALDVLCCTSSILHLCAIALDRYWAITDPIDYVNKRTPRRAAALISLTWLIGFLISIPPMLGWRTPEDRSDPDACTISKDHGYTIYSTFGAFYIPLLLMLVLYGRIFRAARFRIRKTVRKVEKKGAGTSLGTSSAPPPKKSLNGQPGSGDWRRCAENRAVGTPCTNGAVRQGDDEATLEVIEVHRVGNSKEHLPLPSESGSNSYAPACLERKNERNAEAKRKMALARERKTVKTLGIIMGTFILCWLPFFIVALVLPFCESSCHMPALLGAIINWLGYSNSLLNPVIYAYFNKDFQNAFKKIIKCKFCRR

[3] = DRUGMATRIX: Tumor Necrosis Factor (TNF), Non-Selective radioligand binding (ligand: [125I] TNF-alpha); format: cell membranes, Membrane; settings: u-937; Not Active = under 50% inhibition at 10 µM
[4] = biological target: Protein kinase C alpha type (Homo sapiens, UniProt P17252); format: cell-based; settings: sf9;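 note: inhibition of PKCalpha kinase activity measured in an enzyme assay with histone as the phosphorylation substrate; in other assays of this panel Not Active means under 50% inhibition at 10 µM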
[5] = DRUGMATRIX: Calcium Channel Type L, Phenylalkylamine radioligand binding (ligand: [3H] (-)-Desmethoxyverapamil (D-888)); format: cell membranes, Rattus norvegicus, Wistar, Brain, Membrane; settings: Not Active = under 50% inhibition at 10 µM
[6] = biological target: 5-hydroxytryptamine receptor 4 (Cavia porcellus, UniProt O70528); format: cell membranes, Dunkin-Hartley, Striatum, Membrane; note: in other assays of this panel Not Active means under 50% inhibition at 10 µM
Chain of 5-hydroxytryptamine receptor 4 (O70528 whole entry): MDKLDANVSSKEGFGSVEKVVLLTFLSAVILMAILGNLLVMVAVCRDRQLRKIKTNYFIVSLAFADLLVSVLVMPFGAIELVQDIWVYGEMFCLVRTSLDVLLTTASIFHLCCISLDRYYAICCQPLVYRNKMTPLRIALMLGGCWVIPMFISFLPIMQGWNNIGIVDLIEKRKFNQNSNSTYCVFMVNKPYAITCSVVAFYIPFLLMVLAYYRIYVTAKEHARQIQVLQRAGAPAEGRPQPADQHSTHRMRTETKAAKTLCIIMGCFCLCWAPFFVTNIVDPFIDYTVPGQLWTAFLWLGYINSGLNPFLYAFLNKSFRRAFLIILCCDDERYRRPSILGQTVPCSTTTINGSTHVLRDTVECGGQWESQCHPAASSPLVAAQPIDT

Cytochrome P450 2E1 = Cytochrome P450 2E1 (Homo sapiens, UniProt P05181); settings: bti-tn-5b1-4; note: in other assays of this panel Not Active means under 50% inhibition at 10 µM
Chain of Cytochrome P450 2E1 (P05181 whole entry): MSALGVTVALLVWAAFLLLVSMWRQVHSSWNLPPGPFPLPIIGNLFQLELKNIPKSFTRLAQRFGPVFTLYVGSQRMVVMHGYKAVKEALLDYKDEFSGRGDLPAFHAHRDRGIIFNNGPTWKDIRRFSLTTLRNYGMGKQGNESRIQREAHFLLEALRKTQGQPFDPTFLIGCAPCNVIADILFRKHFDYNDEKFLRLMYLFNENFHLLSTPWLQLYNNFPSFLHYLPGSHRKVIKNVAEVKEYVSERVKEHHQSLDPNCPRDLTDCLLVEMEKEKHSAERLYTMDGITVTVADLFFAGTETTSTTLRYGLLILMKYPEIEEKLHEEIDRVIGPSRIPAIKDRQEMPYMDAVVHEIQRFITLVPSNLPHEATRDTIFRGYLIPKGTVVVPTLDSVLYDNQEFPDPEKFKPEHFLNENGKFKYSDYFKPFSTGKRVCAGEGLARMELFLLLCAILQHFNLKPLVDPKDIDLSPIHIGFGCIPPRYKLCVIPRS

Structure (SMILES) | IC50 [1] | IC50 ([2]; cho-k1) | IC50 [3] | Ki [3] | IC50 [4] | IC50 [5] | Ki [5] | IC50 [6] | IC50 (Cytochrome P450 2E1) | Ki (Cytochrome P450 2E1) | IC50 ([2]; read-out: IC50) [nM] | Ki [2] [nM] | IC50 ([5]; read-out: IC50) [nM] | Ki ([5]; read-out: Ki) [nM]
CNCCc1ccccn1 [BETAHISTINE] | Not Active | Not Active | Not Active | Not Active | Not Active | Not Active | Not Active | Not Active | Not Active | Not Active |  |  |  | 
CC(C)C(Br)C(=O)NC(N)=O (stereo not drawn) [BROMISOVALUM] | Not Active | Not Active | Not Active | Not Active | Not Active | Not Active | Not Active | Not Active | Not Active | Not Active |  |  |  | 
CCCC1O[C@@H]2C[C@H]3[C@@H]4CCC5=CC(=O)C=C[C@]5(C)[C@H]4[C@@H](O)C[C@]3(C)[C@]2(C(=O)CO)O1 (stereo partly drawn) [BUDESONIDE] | Not Active | Not Active | Not Active | Not Active | Not Active | Not Active | Not Active | Not Active | Not Active | Not Active |  |  |  | 
CC(NC(C)(C)C)C(=O)c1cccc(Cl)c1 (stereo not drawn) [BUPROPION] | Not Active | Not Active | Not Active | Not Active | Not Active | Not Active | Not Active | Not Active | Not Active | Not Active |  |  |  | 
CN(Cc1ccc(C(C)(C)C)cc1)Cc1cccc2ccccc12 [BUTENAFINE] | Not Active | Not Active | Not Active | Not Active | Not Active | Not Active | Not Active | Not Active | Not Active | Not Active |  |  |  | 
C[C@H](CS)C(=O)N1CCC[C@H]1C(=O)O [CAPTOPRIL] | Not Active | Not Active | Not Active | Not Active | Not Active | Not Active | Not Active | Not Active | Not Active | Not Active |  |  |  | 
Cc1ccc(-c2cc(C(F)(F)F)nn2-c2ccc(S(N)(=O)=O)cc2)cc1 [CELECOXIB] | Not Active | Not Active | Not Active | Not Active | Not Active | Not Active | Not Active | Not Active | Not Active | Not Active |  |  |  | 
O=C(O)CCCc1ccc(N(CCCl)CCCl)cc1 [CHLORAMBUCIL] | Not Active | Not Active | Not Active | Not Active | Not Active | Not Active | Not Active | Not Active | Not Active | Not Active |  |  |  | 
CN(C)CCCN1c2ccccc2Sc2ccc(Cl)cc21 [CHLORPROMAZINE] | Not Active |  | Not Active | Not Active | Not Active |  |  | Not Active | Not Active | Not Active | 4680 | 2680 | 1530 | 1480
C[C@H](CCC(=O)O)[C@H]1CC[C@H]2[C@@H]3[C@H](O)C[C@@H]4C[C@H](O)CC[C@]4(C)[C@H]3C[C@H](O)[C@]12C [CHOLIC ACID] | Not Active | Not Active | Not Active | Not Active | Not Active | Not Active | Not Active | Not Active | Not Active | Not Active |  |  |  | 
Cc1cc(C2CCCCC2)n(O)c(=O)c1 [CICLOPIROX] | Not Active | Not Active | Not Active | Not Active | Not Active | Not Active | Not Active | Not Active | Not Active | Not Active |  |  |  | 
CC1=C2C(=CO[C@H](C)[C@H]2C)C(O)=C(C(=O)O)C1=O [CITRININ] | Not Active | Not Active | Not Active | Not Active | Not Active | Not Active | Not Active | Not Active | Not Active | Not Active |  |  |  | 
CC(C)(C)NCC(O)c1cc(Cl)c(N)c(Cl)c1 (stereo not drawn) [CLENBUTEROL] | Not Active |  | Not Active | Not Active | Not Active | Not Active | Not Active | Not Active | Not Active | Not Active | 2650 | 1520 |  | 
CC(C)(Oc1ccc(Cl)cc1)C(=O)O [CLOFIBRIC ACID] | Not Active | Not Active | Not Active | Not Active | Not Active | Not Active | Not Active | Not Active | Not Active | Not Active |  |  |  | 
Clc1cccc(Cl)c1NC1=NCCN1 [CLONIDINE] | Not Active |  | Not Active | Not Active | Not Active | Not Active | Not Active | Not Active | Not Active | Not Active | 5360 | 3070 |  | 
Cc1cc(C(C#N)c2ccc(Cl)cc2)c(Cl)cc1NC(=O)c1cc(I)cc(I)c1O (stereo not drawn) [CLOSANTEL] | Not Active | Not Active | Not Active | Not Active | Not Active | Not Active | Not Active | Not Active | Not Active | Not Active |  |  |  | 
Cc1onc(-c2ccccc2Cl)c1C(=O)N[C@@H]1C(=O)N2[C@@H]1SC(C)(C)[C@@H]2C(=O)O [CLOXACILLIN] | Not Active | Not Active | Not Active | Not Active | Not Active | Not Active | Not Active | Not Active | Not Active | Not Active |  |  |  | 
CC1CC(OC(=O)C(O)c2ccccc2)CC(C)(C)C1 (stereo not drawn) [CYCLANDELATE] | Not Active | Not Active | Not Active | Not Active | Not Active | Not Active | Not Active | Not Active | Not Active | Not Active |  |  |  | 
Cc1c2oc3c(C)ccc(C(=O)N[C@@H]4C(=O)N[C@H](C(C)C)C(=O)N5CCC[C@H]5C(=O)N(C)CC(=O)N(C)[C@@H](C(C)C)C(=O)O[C@@H]4C)c3nc-2c(C(=O)N[C@@H]2C(=O)N[C@H](C(C)C)C(=O)N3CCC[C@H]3C(=O)N(C)CC(=O)N(C)[C@@H](C(C)C)C(=O)O[C@@H]2C)c(N)c1=O [DACTINOMYCIN] (I: T[dV]P[Sar][NMeV] / II: T[dV]P[Sar][NMeV]; ester I:1-I:C, II:1-II:C; linker I:N-II:N via Actinocin(1to9)) | Not Active | Not Active | Not Active | Not Active | Not Active | Not Active | Not Active | Not Active | Not Active | Not Active |  |  |  | 
Cc1c(O)c(=O)ccn1C [DEFERIPRONE] | Not Active | Not Active | Not Active | Not Active | Not Active | Not Active | Not Active | Not Active | Not Active | Not Active |  |  |  | 
CNCCCN1c2ccccc2CCc2ccccc21 [DESIPRAMINE] | Not Active | Not Active | Not Active | Not Active | Not Active | Not Active | Not Active | Not Active | Not Active | Not Active |  |  |  | 
O=c1oc2ccccc2c(O)c1Cc1c(O)c2ccccc2oc1=O [DICUMAROL] | Not Active | Not Active | Not Active | Not Active | Not Active | Not Active | Not Active | Not Active | Not Active | Not Active |  |  |  | 
